This note sets out measurements from patent US6384044B1, “Method of treating cancer of the prostate” (priority 1999, dated 2002).

The test relates to cancer of the prostate. In words: Case reports: treatment of patients with cancer of the prostate (PSA level, bone scans, X-rays, rectal examination). Type of test: in vivo, human. Here is the method: Instead, a course of radiation of the involved ribs and lumbar-sacral vertebrae was carried out to reduce pain, following which the patient was referred for further treatment.
They were treated with flutamide plus leuprolide for eight weeks followed by implantation of a radioactive needle into the tumor mass. […] At this point, drug therapy was terminated and local radiation was applied to the lumbar spine to reduce pain. […] Two acquaintances in their sixties had been routinely monitoring their PSA levels every six to twelve months because of their age. […] Both were started immediately on low-dose naltrexone 3 mg/day q.h.s while they considered the desirability of undergoing standard therapies for prostate cancer. This exploration took a period of three months for one and four months for the other with both eventually electing to undergo treatment with flutamide, a testosterone blocking agent.

Turning to `O=C1CC[C@@]2(O)[C@H]3Cc4ccc(O)c5c4[C@@]2(CCN3CC2CC2)[C@H]1O5` [naltrexone, Naltrexone], the “Symptom-free follow-up with normal bone scans and very low PSA readings” value (Example 1: continued naltrexone treatment) was found to be 18 months. Further, the “Tumor on bone scans” value (Example 1: naltrexone 3 mg/day q.h.s., after four months) is “disappeared”. Under “Example 1: person, bone metastases, after failed drug therapy and radiation, naltrexone 3 mg/day q.h.s., after four months”, the PSA level result is given as “less than 1.0”. Further, the “X-rays of the spine” value (Example 2: naltrexone 3 mg day q.h.s., over five months) is “became normal”. Also, the PSA reading result (Example 2: person, lumbar vertebrae lesions, after failed drug therapy and local radiation, naltrexone 3 mg day q.h.s., over five months) is given as “zero”. Also, the Tumor shrinkage result (Examples 3 and 4: two men, untreated adenocarcinoma of the prostate, naltrexone 3 mg/day q.h.s. alone for three / four months) is given as “substantial shrinkage, by more than one-half”.
